Results: US20060069132A1, “Azolecarboxamide herbicides” (priority 2004, published 2006)

What was measured:
rice = test: Test B pre-/postemergence herbicide test; format: in vivo, Oryza sativa; settings: preemergence
In short: (§1)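 Formulation: non-phytotoxic solvent mix with surfactant. Timing: preemergence on seed and postemergence on 2–18 cm plants, applied concurrently. Readout after 13–15 d greenhouse: visual 0–100 control rating against controls.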

woolly cupgrass = test: Test C pre-/postemergence herbicide test; format: in vivo, Eriochloa villosa; settings: for Cupgrass, Woolly plant response rating: 500 g ai/ha
In short: (§2)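 Pre/post spray; non-phytotoxic solvent + surfactant. Post-timing 1–4 leaves, 2–18 cm. Read-out: visual % control vs untreated, day 12–14, greenhouse.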

morningglory [1] = test: Test C pre-/postemergence herbicide test; format: in vivo, Ipomoea coccinea; design: key to Plant response rating, Morningglory: 0 = no effect, 100 = complete control; settings: for Morningglory plant response rating: 500 g ai/ha
In short: as §2

velvetleaf [2] = test: Test B pre-/postemergence herbicide test; format: in vivo, Abutilon theophrasti; settings: for Velvetleaf plant response rating: postemergence, visual rating
In short: as §1

bermudagrass = test: Test C pre-/postemergence herbicide test; format: in vivo, Cynodon dactylon; settings: for Bermudagrass plant response rating: 500 g ai/ha
In short: as §2

velvetleaf [3] = test: Test A pre-/postemergence herbicide test; format: in vivo, Abutilon theophrasti
In short: (§3)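 Greenhouse injury scoring (0–100, complete control = 100) at approximately ten days follows simultaneous pre- and postemergence application. Soil received a directed spray after seeding; seedlings of 2–10 cm at the one- to two-leaf stage were sprayed to runoff.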

morningglory [4] = test: Test A pre-/postemergence herbicide test; format: in vivo, Ipomoea spp.
In short: as §3

soybean = test: Test C pre-/postemergence herbicide test; format: in vivo, Glycine max; settings: for Soybean plant response rating: 500 g ai/ha
In short: as §2

goosegrass = test: Test C pre-/postemergence herbicide test; format: in vivo, Eleusine indica; settings: for Goosegrass plant response rating: 500 g ai/ha
In short: as §2

[5] = 125 g ai/ha, 0 to 100 scale, 0 is no effect, 100 is complete control
[6] = 125 g ai/ha, scale 0 (no effect) to 100 (complete control), visual, 12 to 14 days, preemergence
[7] = 250 g ai/ha, scale 0 to 100 (0 no effect, 100 complete control), visual, 12 to 14 days, preemergence
[8] = Preemergence, scale 0 to 100, 0 no effect, 100 complete control
[9] = Postemergence, 500 g ai/ha, visual rating after 13 to 15 days, scale 0 (no effect) to 100 (complete control)
[10] = 125 g ai/ha, scale 0 (no effect) to 100 (complete control)
[11] = preemergence, 125 g ai/ha, 0 to 100 scale, 0 is no effect, 100 is complete control
[12] = Postemergence, 500 g ai/ha, 0 to 100 scale, 0 no effect, 100 complete control
[13] = Postemergence, 2000 g ai/ha, 0 to 100 scale, 0 no effect, 100 complete control
[14] = Preemergence, 500 g ai/ha, visual rating, 0 to 100 scale (0 no effect, 100 complete control)
[15] = Preemergence, 2000 g ai/ha, visual rating, 0 to 100 scale (0 no effect, 100 complete control)
[16] = Preemergence, 2000 g ai/ha, 0 to 100 scale, 0 no effect, 100 complete control
[17] = Postemergence, 250 g ai/ha, scale 0 to 100, 0 no effect, 100 complete control
[18] = postemergence, 125 g ai/ha, scale 0 to 100
[19] = postemergence, 62 g ai/ha, scale 0 to 100
[20] = 500 g ai/ha, visual rating 0-100, 0 no effect, 100 complete control, preemergence

SMILES: CCOC(=O)c1cccc(NC(=O)c2cc(C(C)(C)C)nn2CC)c1C [Compound 88]
- Plant response rating, Rice (rice; [5]): 20
- Plant response rating (0 = no effect, 100 = complete control), Cupgrass, Woolly (woolly cupgrass; 62 g ai/ha, preemergence): 20
- Plant response rating, Cupgrass, Woolly (woolly cupgrass; [6]): 30
- Plant response rating, Cupgrass, Woolly (woolly cupgrass; [7]): 80
- Cupgrass, Woolly plant response rating (woolly cupgrass; [8]): 90
- Plant response rating (0 = no effect, 100 = complete control), Morningglory (morningglory [1]; 62 g ai/ha, preemergence): 0
- Plant response rating, Morningglory (morningglory [1]; [6]): 0
- Morningglory plant response rating (morningglory [1]; [8]): 20
- Plant response rating, Velvetleaf (velvetleaf [2]; [9]): 70
- Velvetleaf plant response rating (velvetleaf [2]; [10]): 30
- Plant response rating, Velvetleaf (velvetleaf [2]; [11]): 40
- Plant response rating (0 = no effect, 100 = complete control), Bermudagrass (bermudagrass; 62 g ai/ha, preemergence): 90
- Plant response rating, Bermudagrass (bermudagrass; [6]): 95
- Plant response rating, Bermudagrass (bermudagrass; [7]): 95
- Bermudagrass plant response rating (bermudagrass; [8]): 95
- Velvetleaf plant response rating (velvetleaf [3]; [12]): 40
- Plant response rating, Velvetleaf (velvetleaf [3]; [13]): 55
- Velvetleaf plant response rating (velvetleaf [3]; [14]): 45
- Velvetleaf plant response rating (velvetleaf [3]; [15]): 70
- Morningglory plant response rating (morningglory [4]; [12]): 35
- Plant response rating, Morningglory (morningglory [4]; [13]): 40
- Morningglory plant response rating (morningglory [4]; [14]): 10
- Morningglory plant response rating (morningglory [4]; [16]): 40
- Plant response rating (0 = no effect, 100 = complete control), Soybean (soybean; 62 g ai/ha, preemergence): 0
- Plant response rating, Soybean (soybean; [6]): 0
- Soybean plant response rating (soybean; [8]): 10
- Plant response rating (0 = no effect, 100 = complete control), Goosegrass (goosegrass; 62 g ai/ha, preemergence): 60
- Plant response rating, Goosegrass (goosegrass; [6]): 90
- Goosegrass plant response rating (goosegrass; [8]): 100

SMILES: CCOC(=O)c1cc(NC(=O)c2cc(C(C)(C)C)nn2CC)ccc1OC [Compound 96]
- Plant response rating, Rice (rice; 500 g ai/ha, visual rating 0-100, 0 no effect, 100 complete control): 70
- Plant response rating, Rice (rice; [5]): 60
- Plant response rating (0 = no effect, 100 = complete control), Cupgrass, Woolly (woolly cupgrass; 62 g ai/ha, preemergence): 5
- Plant response rating, Cupgrass, Woolly (woolly cupgrass; [6]): 10
- Plant response rating, Cupgrass, Woolly (woolly cupgrass; [7]): 20
- Cupgrass, Woolly plant response rating (woolly cupgrass; Postemergence, scale 0 to 100): 50
- Plant response rating, Cupgrass, Woolly (woolly cupgrass; [17]): 30
- Cupgrass, Woolly plant response rating (woolly cupgrass; [8]): 70
- Plant response rating, Cupgrass, Woolly (woolly cupgrass; [18]): 30
- Plant response rating, Cupgrass, Woolly (woolly cupgrass; [19]): 5
- Plant response rating (0 = no effect, 100 = complete control), Morningglory (morningglory [1]; 62 g ai/ha, preemergence): 0
- Plant response rating, Morningglory (morningglory [1]; [6]): 50
- Morningglory plant response rating (morningglory [1]; Postemergence, scale 0 to 100): 50
- Plant response rating, Morningglory (morningglory [1]; [17]): 30
- Morningglory plant response rating (morningglory [1]; [8]): 100
- Plant response rating, Morningglory (morningglory [1]; [18]): 5
- Plant response rating, Morningglory (morningglory [1]; [19]): 0
- Plant response rating, Velvetleaf (velvetleaf [2]; [20]): 90
- Plant response rating, Velvetleaf (velvetleaf [2]; [9]): 80
- Velvetleaf plant response rating (velvetleaf [2]; [10]): 70
- Plant response rating, Velvetleaf (velvetleaf [2]; [11]): 50
- Plant response rating (0 = no effect, 100 = complete control), Bermudagrass (bermudagrass; 62 g ai/ha, preemergence): 40
- Plant response rating, Bermudagrass (bermudagrass; [6]): 80
- Plant response rating, Bermudagrass (bermudagrass; [7]): 85
- Bermudagrass plant response rating (bermudagrass; Postemergence, scale 0 to 100): 5
- Plant response rating, Bermudagrass (bermudagrass; [17]): 5
- Bermudagrass plant response rating (bermudagrass; [8]): 100
- Plant response rating, Bermudagrass (bermudagrass; [18]): 0
- Plant response rating, Bermudagrass (bermudagrass; [19]): 0
- Velvetleaf plant response rating (velvetleaf [3]; [12]): 70
- Plant response rating, Velvetleaf (velvetleaf [3]; [13]): 70
- Velvetleaf plant response rating (velvetleaf [3]; [14]): 95
- Velvetleaf plant response rating (velvetleaf [3]; [15]): 100
- Morningglory plant response rating (morningglory [4]; [12]): 10
- Plant response rating, Morningglory (morningglory [4]; [13]): 15
- Morningglory plant response rating (morningglory [4]; [14]): 25
- Morningglory plant response rating (morningglory [4]; [16]): 70
- Plant response rating (0 = no effect, 100 = complete control), Soybean (soybean; 62 g ai/ha, preemergence): 0
- Plant response rating, Soybean (soybean; [6]): 5
- Soybean plant response rating (soybean; Postemergence, scale 0 to 100): 100
- Plant response rating, Soybean (soybean; [17]): 100
- Soybean plant response rating (soybean; [8]): 50
- Plant response rating, Soybean (soybean; [18]): 100
- Plant response rating, Soybean (soybean; [19]): 100
- Plant response rating (0 = no effect, 100 = complete control), Goosegrass (goosegrass; 62 g ai/ha, preemergence): 30
- Plant response rating, Goosegrass (goosegrass; [6]): 80
- Goosegrass plant response rating (goosegrass; Postemergence, scale 0 to 100): 5
- Plant response rating, Goosegrass (goosegrass; [17]): 5
- Goosegrass plant response rating (goosegrass; [8]): 95
- Plant response rating, Goosegrass (goosegrass; [18]): 5
- Plant response rating, Goosegrass (goosegrass; [19]): 5

SMILES: CC(=NO)c1cccc(NC(=O)c2cc(C(C)(C)C)nn2CCF)c1 [Compound 115]
- Plant response rating, Rice (rice; [5]): 0
- Plant response rating (0 = no effect, 100 = complete control), Cupgrass, Woolly (woolly cupgrass; 62 g ai/ha, preemergence): 20
- Plant response rating, Cupgrass, Woolly (woolly cupgrass; [6]): 30
- Plant response rating, Cupgrass, Woolly (woolly cupgrass; [7]): 80
- Cupgrass, Woolly plant response rating (woolly cupgrass; Postemergence, scale 0 to 100): 70
- Plant response rating, Cupgrass, Woolly (woolly cupgrass; [17]): 70
- Cupgrass, Woolly plant response rating (woolly cupgrass; [8]): 90
- Plant response rating, Cupgrass, Woolly (woolly cupgrass; [18]): 70
- Plant response rating, Cupgrass, Woolly (woolly cupgrass; [19]): 50
- Plant response rating, Morningglory (morningglory [1]; [6]): 30
- Morningglory plant response rating (morningglory [1]; Postemergence, scale 0 to 100): 100
- Morningglory plant response rating (morningglory [1]; [8]): 80
- Plant response rating, Morningglory (morningglory [1]; [18]): 80
- Plant response rating, Morningglory (morningglory [1]; [19]): 50
- Plant response rating, Velvetleaf (velvetleaf [2]; [20]): 100
- Plant response rating, Velvetleaf (velvetleaf [2]; [9]): 80
- Velvetleaf plant response rating (velvetleaf [2]; [10]): 60
- Plant response rating, Velvetleaf (velvetleaf [2]; [11]): 80
- Plant response rating (0 = no effect, 100 = complete control), Bermudagrass (bermudagrass; 62 g ai/ha, preemergence): 100
- Plant response rating, Bermudagrass (bermudagrass; [6]): 100
- Plant response rating, Bermudagrass (bermudagrass; [7]): 100
- Bermudagrass plant response rating (bermudagrass; Postemergence, scale 0 to 100): 100
- Plant response rating, Bermudagrass (bermudagrass; [17]): 60
- Bermudagrass plant response rating (bermudagrass; [8]): 100
- Plant response rating, Bermudagrass (bermudagrass; [18]): 60
- Plant response rating, Bermudagrass (bermudagrass; [19]): 10
- Velvetleaf plant response rating (velvetleaf [3]; [12]): 40
- Plant response rating, Velvetleaf (velvetleaf [3]; [13]): 40
- Velvetleaf plant response rating (velvetleaf [3]; [14]): 85
- Velvetleaf plant response rating (velvetleaf [3]; [15]): 95
- Morningglory plant response rating (morningglory [4]; [12]): 35
- Plant response rating, Morningglory (morningglory [4]; [13]): 30
- Morningglory plant response rating (morningglory [4]; [14]): 70
- Morningglory plant response rating (morningglory [4]; [15]): 90
- Plant response rating (0 = no effect, 100 = complete control), Soybean (soybean; 62 g ai/ha, preemergence): 0
- Plant response rating, Soybean (soybean; [6]): 0
- Soybean plant response rating (soybean; Postemergence, scale 0 to 100): 90
- Plant response rating, Soybean (soybean; [17]): 80
- Soybean plant response rating (soybean; [8]): 0
- Plant response rating, Soybean (soybean; [18]): 70
- Plant response rating, Soybean (soybean; [19]): 60
- Plant response rating (0 = no effect, 100 = complete control), Goosegrass (goosegrass; 62 g ai/ha, preemergence): 70
- Plant response rating, Goosegrass (goosegrass; [6]): 80
- Goosegrass plant response rating (goosegrass; Postemergence, scale 0 to 100): 70
- Plant response rating, Goosegrass (goosegrass; [17]): 70
- Goosegrass plant response rating (goosegrass; [8]): 100
- Plant response rating, Goosegrass (goosegrass; [18]): 60
- Plant response rating, Goosegrass (goosegrass; [19]): 40
